Laboratory results published in US5726325A, “Tricyclic compounds” (Kyowa Hakko Kogyo Co., Ltd., priority 1995, dated 1998).

Assays:
detrusor muscle [1] = assay: Test Example 1: relaxation of guinea pig bladder strips contracted with 50 mM KCl; type: cell-based, guinea pig (male albino Hartley); conditions: Cavia porcellus; contraction induced by 50 mM KCl; concentration decreasing detrusor contraction by 50%
Method in brief: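 Mucosa-free detrusor strips from male Hartley guinea pigs were held at 1 g in Krebs-Henseleit, 37°C, 5% CO2/95% O2, pH about 7.4, and contracted with 50 mM KCl. Compound was added cumulatively in half-log steps, 30 min per concentration; IC50 is the concentration giving 50% relaxation of KCl tension.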

detrusor muscle [2] = assay: Test Example 2: relaxation of guinea pig bladder strips, rhythmical contraction induced by 15 mM KCl; type: cell-based, guinea pig (male albino Hartley); conditions: Cavia porcellus, concentration decreasing detrusor contraction by 50%
Method in brief: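 Male Hartley guinea pig detrusor strips, mucosa removed, in Krebs-Henseleit buffer at 37 °C, pH about 7.4, 5% CO2/95% O2, 1 g resting tension. Rhythmic contraction induced with 15 mM KCl; compound added cumulatively in half-log steps, 30 min each; […].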

bladder [3] = assay: Test Example 3: vesical contraction interval in anesthetized rats, intravenous; type: in vivo, rat (female SD strain); conditions: 1 mg/kg i.v., average over 20 minutes, relative to pre-administration value
Description: Female SD strain rats (120-180 g) were used as test animals. Each animal was anesthetized by subcutaneous administration of 1 g/kg urethane. A catheter was inserted into the trachea to secure respiration. A polyethylene cannula (PE50) was inserted into the bladder from the entrance of the urethra and the urethra was ligated at the base. A catheter for blood pressure measurement was inserted into the right carotid artery, and a cannula for drug administration was inserted into the right jugular vein. The arterial catheter and the vesical catheter were connected to pressure transducers to measure the blood pressure and the intravesical pressure. After the bladder was stabilized over about 15 minutes, physiological saline was injected into the bladder at a volume of 0.2-0.7 ml to induce the rhythmical contraction almost once a minute. […]
By this examination method, the effect of the test compounds on both blood pressure and vesical contraction can be evaluated. The blood pressure was measured 5, 15, and 30 minutes after the test compound was injected into the vein. […] The change of average contraction interval (time between contractions) over 20 minutes was expressed as the relative value based on the pre-administration value which was regarded as 100.

[4] = Test Example 3: arterial blood pressure in anesthetized rats, intravenous; type: in vivo, rat (female SD strain); conditions: 1 mg/kg i.v.
Description: Female SD strain rats (120-180 g) were used as test animals. Each animal was anesthetized by subcutaneous administration of 1 g/kg urethane. A catheter was inserted into the trachea to secure respiration. A polyethylene cannula (PE50) was inserted into the bladder from the entrance of the urethra and the urethra was ligated at the base. A catheter for blood pressure measurement was inserted into the right carotid artery, and a cannula for drug administration was inserted into the right jugular vein. The arterial catheter and the vesical catheter were connected to pressure transducers to measure the blood pressure and the intravesical pressure. After the bladder was stabilized over about 15 minutes, physiological saline was injected into the bladder at a volume of 0.2-0.7 ml to induce the rhythmical contraction almost once a minute. After the contraction of the bladder started, the contraction pattern was stabilized for 30-45 minutes, followed by intravenous administration of a test compound.
By this examination method, the effect of the test compounds on both blood pressure and vesical contraction can be evaluated. The blood pressure was measured 5, 15, and 30 minutes after the test compound was injected into the vein. Micturition contraction was induced by injecting physiological saline into the bladder. The change of average contraction interval (time between contractions) over 20 minutes was expressed as the relative value based on the pre-administration value which was regarded as 100.

bladder [5] = assay: Test Example 4: micturition contraction interval in rats under partial restraint, oral; type: in vivo, rat (male SD strain); conditions: Rattus norvegicus, 3 mg/kg oral, pre-administration = 100
Description: As a control compound, cromakalim was used.

Structure (SMILES)	IC50 (detrusor muscle [1]) [nM]	IC50 (detrusor muscle [2]) [nM]	Change of contraction interval (bladder [3])	Change of average arterial blood pressure ([4]; 5 min)	Change of average arterial blood pressure ([4]; 15 min)	Change of average arterial blood pressure ([4]; 30 min)	response vs control in vivo at 3 mg/kg (bladder [5]; 1 hr) [%]	response vs control in vivo at 3 mg/kg (bladder [5]; 2 hr) [%]	response vs control in vivo at 3 mg/kg (bladder [5]; 3 hr) [%]	response vs control in vivo at 3 mg/kg (bladder [5]; 4 hr) [%]	response vs control in vivo at 3 mg/kg (bladder [5]; 5 hr) [%]
CC(O)(C(=O)Nc1cccc2c1C(=O)c1sccc1CO2)C(F)(F)F (stereo not shown) [Compound 7, 9-(3,3,3-Trifluoro-2-hydroxy-2-methylpropanoylamino)-4,10-dihydrothieno[3,2-c][1]benzoxepin-10-one]	2400	2100	+186%	-4%	+1%	+4%	132	141	149	154	146
CC(O)(C(=O)Nc1cccc2c1C(=O)c1ccccc1CO2)C(F)(F)F (stereo not shown) [Compound 1, 1-(3,3,3-Trifluoro-2-hydroxy-2-methylpropanoylamino)-6,11-dihydrodibenz[b,e]oxepin-11-one]	1700	2400	+150%	+5%	+5%	+5%	136	148	134	122	117
